Laboratory results as given in patent EP4600261A1, “KERATIN YK93-2, AND PREPARATION METHOD THEREFOR, PHARMACEUTICAL COMPOSITION THEREOF AND USE THEREOF” (INSTITUTE OF MATERIA MEDICA, CHINESE ACADEMY OF MEDICAL …, priority 2022, dated 2024).
Where a name gives a salt, the structure may show the parent alone.

Tested on: mouse pain model
Assay: mouse pain model, acetic acid-induced writhing
Type: in vivo, Male Kunming mice
Conditions: Tramadol Hydrochloride 50mg/kg, 1% acetic acid intraperitoneally, writhing within 15 minutes
Description: • Animals: Male Kunming mice; • Drugs: Tramadol Hydrochloride Sustained Release Tablets, Glacial acetic acid, YK93-2; • Instruments: electronic balance, timer
• Normal control group; • Positive control group: Tramadol Hydrochloride group; • Protein YK93-2, (2g/kg) group.
Mice in the YK93-2 (2g/kg) group were administered by gavage, while mice in the model group were given an equal volume of CMC-Na once a day for 7 consecutive days. 30 minutes after the last administration, 1% acetic acid was administered intraperitoneally, and the writhing times of mice within 15 minutes was recorded, and the inhibition rate of drug-induced writhing reaction was calculated. The observation criteria were concave abdominal cavity, extended hind limbs, and raised buttocks.
The inhibition rate was calculated by (Mean number of writhing reactions in the normal control group - Mean number of writhing reactions in the treatment group)/Mean number of writhing reactions in the normal control group * 100%.

With `COc1cccc(C2(O)CCCCC2CN(C)C)c1` (stereo not shown) [Tramadol Hydrochloride] as the compound, how does the Number of writhing read?
The Number of writhing was “significantly reduced”.
